The values below come from ChEMBL document CHEMBL1150961, “Tenuecyclamides A-D, cyclic hexapeptides from the cyanobacterium Nostoc spongiaeforme var. tenue” (1998).

For this experiment, the system named is Paracentrotus lividus. The experiment can be described thus: Inhibition of sea urchin egg fertilization by sea urchin sperm assessed as inhibition of divided eggs. Type of experiment: functional.

`Cc1oc2nc1C(=O)NC(C)c1nc(cs1)C(=O)NC(C)c1nc(cs1)C(=O)N[C@H]2C` (stereo partly drawn) [TENUECYCLAMIDE A]: the ED100 is 10.8 µM.

With `CSCC[C@@H]1NC(=O)c2csc(n2)CNC(=O)c2nc(oc2C)[C@H](C)NC(=O)c2csc1n2` [TENUECYCLAMIDE C], the ED100 came to 9 µM.

Take `Cc1oc2nc1C(=O)NCc1nc(cs1)C(=O)N[C@@H](CC[S+](C)[O-])c1nc(cs1)C(=O)N[C@H]2C` (stereo partly drawn) [TENUECYCLAMIDE D]: the ED100 came to 19.1 µM.
